Reference: the supplement of paper PMC11451515

System: NOMO1
Experiment: cell viability relative to DMSO control; higher = less cytotoxic
Settings: 48 h
Outline: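 Cells were incubated for 48 h at 37°C before CellTiter-Glo One luminescence was read. The cells were NOMO1 or SEM (500 cells/well) or P12-Ichikawa (1000 cells/well) leukemia cells, adapted for at least four passages in each medium and seeded in 1536-well plates (5 μl). Dosing used library compounds in DMSO applied by pin over 11 threefold points, 47 μM to 0.79 nM. Viability is the per-plate percentage of DMSO wells, with cell-free wells as background.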

[1] = HPLM + 10% dialyzed FBS, 0.000781 µM
[2] = HPLM + 10% dialyzed FBS, 0.00234 µM
[3] = HPLM + 10% dialyzed FBS, 0.00702 µM
[4] = HPLM + 10% dialyzed FBS, 0.0211 µM
[5] = HPLM + 10% dialyzed FBS, 0.0632 µM
[6] = HPLM + 10% dialyzed FBS, 0.19 µM
[7] = HPLM + 10% dialyzed FBS, 0.569 µM
[8] = HPLM + 10% dialyzed FBS, 1.71 µM
[9] = HPLM + 10% dialyzed FBS, 5.12 µM
[10] = HPLM + 10% dialyzed FBS, 15.4 µM
[11] = HPLM + 10% dialyzed FBS, 46.1 µM
[12] = RPMI 5 mM glucose + 10% FBS, 0.000781 µM
[13] = RPMI 5 mM glucose + 10% FBS, 0.00234 µM
[14] = RPMI 5 mM glucose + 10% FBS, 0.00702 µM
[15] = RPMI 5 mM glucose + 10% FBS, 0.0211 µM
[16] = RPMI 5 mM glucose + 10% FBS, 0.0632 µM
[17] = RPMI 5 mM glucose + 10% FBS, 0.19 µM
[18] = RPMI 5 mM glucose + 10% FBS, 0.569 µM
[19] = RPMI 5 mM glucose + 10% FBS, 1.71 µM
[20] = RPMI 5 mM glucose + 10% FBS, 5.12 µM
[21] = RPMI 5 mM glucose + 10% FBS, 15.4 µM
[22] = RPMI 5 mM glucose + 10% FBS, 46.1 µM
[23] = RPMI 5 mM glucose + 10% dialyzed FBS, 0.000781 µM
[24] = RPMI 5 mM glucose + 10% dialyzed FBS, 0.00234 µM
[25] = RPMI 5 mM glucose + 10% dialyzed FBS, 0.00702 µM
[26] = RPMI 5 mM glucose + 10% dialyzed FBS, 0.0211 µM
[27] = RPMI 5 mM glucose + 10% dialyzed FBS, 0.0632 µM
[28] = RPMI 5 mM glucose + 10% dialyzed FBS, 0.19 µM
[29] = RPMI 5 mM glucose + 10% dialyzed FBS, 0.569 µM
[30] = RPMI 5 mM glucose + 10% dialyzed FBS, 1.71 µM
[31] = RPMI 5 mM glucose + 10% dialyzed FBS, 5.12 µM
[32] = RPMI 5 mM glucose + 10% dialyzed FBS, 15.4 µM
[33] = RPMI 5 mM glucose + 10% dialyzed FBS, 46.1 µM

| Structure (SMILES) | cell viability [1] [%] | cell viability [2] [%] | cell viability [3] [%] | cell viability [4] [%] | cell viability [5] [%] | cell viability [6] [%] | cell viability [7] [%] | cell viability [8] [%] | cell viability [9] [%] | cell viability [10] [%] | cell viability [11] [%] | cell viability [12] [%] | cell viability [13] [%] | cell viability [14] [%] | cell viability [15] [%] | cell viability [16] [%] | cell viability [17] [%] | cell viability [18] [%] | cell viability [19] [%] | cell viability [20] [%] | cell viability [21] [%] | cell viability [22] [%] | cell viability [23] [%] | cell viability [24] [%] | cell viability [25] [%] | cell viability [26] [%] | cell viability [27] [%] | cell viability [28] [%] | cell viability [29] [%] | cell viability [30] [%] | cell viability [31] [%] | cell viability [32] [%] | cell viability [33] [%] |
| --- | --- | --- | --- | --- | --- | --- | --- | --- | --- | --- | --- | --- | --- | --- | --- | --- | --- | --- | --- | --- | --- | --- | --- | --- | --- | --- | --- | --- | --- | --- | --- | --- | --- |
| Cn1c(=O)c2c(ncn2CC(O)CO)n(C)c1=O (configuration not stated) | 106 | 109 | 114 | 119 | 121 | 136 | 103 | 120 | 130 | 103 | 111 | 119 | 98 | 100 | 109 | 104 | 108 | 103 | 103 | 103 | 95.3 | 58.2 | 116 | 116 | 115 | 128 | 118 | 115 | 128 | 120 | 111 | 99.4 | 62.7 |
| CC(C)(O)CNc1nc(Nc2ccnc(C(F)(F)F)c2)nc(-c2cccc(C(F)(F)F)n2)n1 | 99.2 | 99.4 | 131 | 120 | 146 | 122 | 134 | 114 | 99.4 | 85.8 | 72.8 | 112 | 115 | 102 | 109 | 118 | 106 | 103 | 123 | 43.7 | 50.3 | 48.7 | 105 | 110 | 120 | 115 | 121 | 117 | 109 | 114 | 56.3 | 53.2 | 62.5 |
| c1ccc2c(-c3cnn4cc(-c5ccc(N6CCNCC6)cc5)cnc34)ccnc2c1 | 79.8 | 77.8 | 134 | 166 | 144 | 143 | 146 | 121 | 114 | 111 | 90.3 | 93.8 | 91.3 | 139 | 133 | 132 | 137 | 128 | 126 | 122 | 120 | 87.7 | 83.9 | 72 | 122 | 120 | 173 | 150 | 141 | 144 | 146 | 117 | 77.8 |
| O=P(O)(O)C(O)(Cc1cccnc1)P(=O)(O)[O][Na] (configuration not stated) | 71.5 | 102 | 98.3 | 33 | 107 | 97.2 | 119 | 116 | 116 | 102 | 106 | 85.3 | 93.6 | 90.8 | 22.8 | 90.7 | 85 | 93 | 84.7 | 83.7 | 85.9 | 86.6 | 76.4 | 80.2 | 82.8 | 25.2 | 88.2 | 93.5 | 103 | 92.6 | 97.6 | 93.6 | 106 |
| COc1cc(/C=C/C(=O)CC(=O)/C=C/c2ccc(O)c(OC)c2)ccc1O | 105 | 105 | 118 | 111 | 112 | 123 | 114 | 115 | 99.8 | 42.3 | 5.01 | 97.4 | 93.6 | 103 | 108 | 106 | 105 | 102 | 115 | 102 | 73.2 | 7.35 | 105 | 105 | 106 | 106 | 118 | 112 | 104 | 104 | 101 | 79.9 | 10.1 |
| CCOP(=O)(OCC)C(C)NC(=O)N(CCCl)N=O (configuration not stated) | – | – | – | – | – | – | – | – | – | – | – | 120 | 115 | 124 | 134 | 121 | 131 | 126 | 139 | 141 | 163 | 154 | 112 | 116 | 138 | 141 | 137 | 137 | 134 | 136 | 133 | 140 | 128 |
| COc1ccc(-c2c(-c3ccc(O)cc3O)n[nH]c2C)cc1 | 108 | 115 | 105 | 115 | 126 | 117 | 104 | 123 | 83 | 102 | 59 | 89 | 98.4 | 105 | 101 | 100 | 113 | 105 | 111 | 106 | 102 | 90.3 | 91 | 98 | 102 | 124 | 113 | 110 | 121 | 99.1 | 109 | 99.1 | 77.1 |
| COc1ccc(-c2nc3cc(C4=NNC(=O)CC4C)ccc3[nH]2)cc1 (configuration not stated) | 104 | 117 | 107 | 103 | 110 | 119 | 112 | 123 | 119 | 119 | 126 | 91.5 | 102 | 100 | 108 | 117 | 118 | 109 | 114 | 102 | 117 | 118 | 116 | 110 | 111 | 105 | 110 | 118 | 104 | 111 | 116 | 110 | 120 |
| COc1ccc2cc(-c3[nH]c(-c4ccc([S+](C)[O-])cc4)nc3-c3ccncc3)ccc2c1 (configuration not stated) | 115 | 118 | 124 | 118 | 136 | 143 | 148 | 126 | 120 | 143 | 111 | 100 | 103 | 114 | 113 | 114 | 99.1 | 107 | 111 | 108 | 110 | 134 | 111 | 98.5 | 106 | 118 | 121 | 113 | 130 | 123 | 127 | 150 | 119 |
| Cn1cc(-c2ccncc2)c(-c2ccc(OCc3ccc4ccccc4n3)cc2)n1 | – | – | – | – | – | – | – | – | – | – | – | – | – | – | – | – | – | – | – | – | – | – | 102 | 123 | 133 | 125 | 114 | 117 | 131 | 123 | 109 | 111 | 98.4 |
| CC1(C)O[C@H]2CC(=O)OC[C@]23[C@H]2CC[C@@]4(C)[C@H](c5ccoc5)OC(=O)[C@H]5O[C@]54[C@]2(C)C(=O)C[C@@H]13 | 114 | 91.3 | 98.8 | 84.5 | 99.4 | 110 | 99.2 | 115 | 114 | 103 | 87.7 | 96.8 | 89.8 | 93.7 | 96.1 | 101 | 105 | 98.9 | 108 | 98.4 | 103 | 97.8 | 87.2 | 95.7 | 83 | 101 | 102 | 98.5 | 96.7 | 110 | 99.1 | 109 | 98 |
| C=C1C[C@@]2(O)O[C@@]3(C[C@H]2C(C)C)[C@@H](C)CC[C@@H]13 | 120 | 94.8 | 122 | 133 | 121 | 134 | 114 | 117 | 134 | 132 | 111 | 108 | 114 | 122 | 126 | 136 | 119 | 121 | 122 | 130 | 119 | 135 | 114 | 125 | 118 | 109 | 117 | 122 | 98.1 | 102 | 121 | 102 | 124 |
| CC1=C2N=C([NH]C2=CC(=C1)N3CCOCC3)\C4=C(NC[C@@H](O)C5=CC=CC(=C5)Cl)\C=C/NC4=O | 86.2 | 100 | 105 | 99.8 | 98.4 | 92.8 | 79.3 | 65.4 | 61.2 | 44.2 | 44.7 | 104 | 103 | 109 | 99.1 | 95.7 | 108 | 89.8 | 73.7 | 68.9 | 65.3 | 57.4 | 99.6 | 101 | 90.4 | 91.9 | 96 | 87.6 | 72.8 | 67.1 | 53.6 | 57.2 | 49.1 |
| NC12CC3CC(CC(C3)C1)C2 | 108 | 104 | 102 | 103 | 138 | 121 | 111 | 106 | 101 | 96.4 | 88.5 | 102 | 102 | 102 | 101 | 97 | 108 | 98.2 | 94.5 | 99.1 | 98.5 | 104 | 95.3 | 95.8 | 108 | 97.8 | 93.1 | 105 | 103 | 96 | 88.3 | 97 | 81 |
| c1cc(-c2sc(-c3ccncc3)c(-c3ccncc3)c2-c2ccncc2)ccn1 | 88.1 | 111 | 117 | 111 | 108 | 129 | 140 | 114 | 124 | 116 | 78.3 | 118 | 128 | 106 | 105 | 113 | 118 | 127 | 103 | 98.2 | 109 | 93.4 | 94.1 | 107 | 106 | 104 | 117 | 106 | 114 | 105 | 101 | 90.9 | 92.3 |
